For assay [1], the system named is Enterococcus faecalis ATCC 29212. As to the kind of experiment: MIC determination. Type of assay: cell-based. As to conditions: E. faecalis ATCC 29212; 18 h. As to the method: (§1) The antibacterial activity of tested samples was assessed against both gram-positive bacteria (Staphylococcus aureus ATCC 25923, Staphylococcus aureus ATCC 6538, Staphylococcus epidermidis ATCC 12228, Enterococcus faecalis ATCC 29212, Listeria monocytogenes ATCC 19115, Bacillus subtilis ATCC 6633, Bacillus cereus ATCC 10876) and gram-negative bacteria (Escherichia coli ATCC 10530, Salmonella typhimurium ATCC 14028). Antibacterial properties were evaluated using both the dilution method (employing DMSO and 96-well plates) and the diffusion-well method (using Mueller Hinton Agar, Merck, Germany).
(§2) The minimum inhibitory concentrations (MICs) of the tested samples were evaluated against a panel of reference microorganisms obtained from the American Type Culture Collection (ATCC), including Gram-negative bacteria (Escherichia coli ATCC 10530, Salmonella typhimurium ATCC 14028), and Gram-positive bacteria (Staphylococcus aureus ATCC 25923, Staphylococcus aureus ATCC 6538, Staphylococcus epidermidis ATCC 12228, Enterococcus faecalis ATCC 29212, Listeria monocytogenes ATCC 19115, Bacillus subtilis ATCC 6633), and one strain (Bacillus cereus ŁOCK 0807) obtained from the Pure Culture of Industrial Microorganisms of the Institute of Fermentation Technology and Microbiology ŁOCK 105 (Łódź, Poland).
(§3) The microorganism cultures with a density of 1.5 × 10^8 CFU mL^−1 (corresponding to a McFarland standard of 0.5) were plated on Mueller–Hinton Agar (Merck, Germany) following the procedures recommended by the European Committee on Antimicrobial Susceptibility Testing (EUCAST).[47] Wells measuring 10 mm in diameter were cut into the medium. The tested compounds were dissolved in a DMSO solution, which was recommended due to their chemical structures. Subsequently, 100 μL of prepared solutions containing the tested compounds at concentrations ranging from x μg mL^−1 to x μg mL^−1 were added to each well. The plates were incubated at 30 °C (for Bacillus subtilis and Bacillus cereus) or 37 °C (for other bacteria) for 18 hours. After incubation, the minimum inhibitory concentration (MIC value) was determined (the lowest concentration of the tested compounds that prevents bacterial growth) and expressed in μg mL^−1. The experiment was conducted in three independent replicates. Ciprofloxacin (Sigma Aldrich, Saint Louis, MO, USA) was used as a reference antimicrobial agent against Gram-negative bacteria, while vancomycin (Sigma Aldrich, Saint Louis, MO, USA) was used as a reference antimicrobial agent against Gram-positive bacteria.

For assay [2], the system named is Staphylococcus aureus ATCC 6538. As to the kind of experiment: MIC determination. Type of assay: cell-based. As to conditions: S. aureus ATCC 6538; 18 h. As to the method:
as §1, §2, §3

Assay [3] concerns Salmonella typhimurium ATCC 14028. As to the kind of experiment: MIC determination. In kind it is cell-based. The conditions noted are these: S. typhimurium ATCC 14028; 18 h. The protocol:
as §1, §2, §3

The subject of assay [4] is Bacillus cereus ŁOCK 0807. As to the kind of experiment: MIC determination. Type of assay: cell-based. The conditions noted are these: Bacillus cereus ŁOCK 0807; 18 h. The protocol:
as §1, §2, §3

The subject of assay [5] is Escherichia coli ATCC 10530. As to the kind of experiment: MIC determination. As to conditions: Escherichia coli ATCC 10530, 18 h. In kind it is cell-based. The protocol:
as §1, §2, §3

Assay [6] concerns Bacillus subtilis ATCC 6633. As to the kind of experiment: MIC determination. In kind it is cell-based. As to conditions: 18 h. As to the method: as §1, §2, §3
Assay [7] relates to Listeria monocytogenes ATCC 19115. As to the kind of experiment: MIC determination. In kind it is cell-based. As to conditions: Listeria monocytogenes ATCC 19115, 18 h. The protocol: as §1, §2, §3
The test system of assay [8] is Staphylococcus aureus ATCC 25923. As to the kind of experiment: MIC determination. As to conditions: S. aureus ATCC 25923, 18 h. In kind it is cell-based. The protocol: as §1, §2, §3
Assay [9] relates to Staphylococcus epidermidis ATCC 12228. As to the kind of experiment: MIC determination. In kind it is cell-based. The conditions noted are these: S. epidermidis ATCC 12228; 18 h. As to the method: as §1, §2, §3
A further assay relates to E. faecalis ATCC 29212. As to the kind of experiment: Diffusion-well method, inhibition zones. As to conditions: 500 µg/mL, wells 10 mm. Type of assay: cell-based, Enterococcus faecalis. The protocol:
as §1
(§4) 24 hour bacterial cultures with a density of 1–2 × 10^8 CFU mL^−1 were plated (0.1 mL) on Mueller–Hinton Agar (Merck, Germany). Subsequently, wells with a diameter of 10 mm were cut out from and filled with 100 μL of the tested compound at a concentration of 10–500 μg mL^−1 (diluted in DMSO). After an 18-hour incubation at either 30 °C (for Bacillus ssp.) or 37 °C (for other tested microorganisms), the inhibition zones around the wells were measured, and the results were expressed in millimetres (Table S9 ^†).

For assay [10], the system named is L. monocytogenes ATCC 19115. As to the kind of experiment: Diffusion-well method, inhibition zones. Type of assay: cell-based, Listeria monocytogenes. The conditions noted are these: 500 µg/mL, wells 10 mm. As to the method: as §1, §4
The subject of the next assay is S. aureus ATCC 25923. As to the kind of experiment: Diffusion-well method, inhibition zones. As to conditions: 500 µg/mL, wells 10 mm. Type of assay: cell-based, Staphylococcus aureus. As to the method:
as §1, §4

Another assay concerns S. aureus ATCC 6538. As to the kind of experiment: Diffusion-well method, inhibition zones. Type of assay: cell-based, Staphylococcus aureus. As to conditions: 500 µg/mL, wells 10 mm. The protocol: as §1, §4
The next assay deals with B. subtilis ATCC 6633. As to the kind of experiment: Diffusion-well method, inhibition zones. Type of assay: cell-based, Bacillus subtilis. The conditions noted are these: 500 µg/mL, wells 10 mm. The protocol:
as §1, §4

The subject of another assay is B. cereus ŁOCK 0807. As to the kind of experiment: Diffusion-well method, inhibition zones. In kind it is cell-based, Bacillus cereus. The conditions noted are these: 500 µg/mL, wells 10 mm.
For a further assay, the system named is E. coli ATCC 10530. As to the kind of experiment: Diffusion-well method, inhibition zones. Type of assay: cell-based, Escherichia coli. As to conditions: 500 µg/mL, wells 10 mm. As to the method:
as §1, §4

Assay [11] concerns S. Typhimurium ATCC 14028. As to the kind of experiment: Diffusion-well method, inhibition zones. Type of assay: cell-based, Salmonella typhimurium. As to conditions: 500 µg/mL, wells 10 mm. As to the method: as §1, §4
Another assay concerns glioblastoma U87 cells. As to the kind of experiment: MTT cell viability assay. In kind it is cell-based, human. The conditions noted are these: 48 hours of incubation. As to the method: (§5) The glioblastoma cell lines LN-229 and U87 and the reference human normal skin fibroblast BJ were obtained from the American Type Culture Collection (ATCC). Cells were grown as monolayers when cultured in cell culture flasks and cultured in Dulbecco's Modified Eagle Medium (DMEM) – LN-229 and Eagle's Minimum Essential Medium (EMEM) – U87 and BJ, supplemented with 10% (v/v) fetal bovine serum, penicillin (10 000 U mL^−1), streptomycin (10 mg mL^−1) and amphotericin B (250 μg mL^−1). The cells were incubated at 37 °C, 5% CO2 atmosphere. The cells were maintained in the logarithmic growth phase by regular passage at 80% confluence.
(§6) The cytotoxicity of the tested compounds was evaluated against both human glioblastoma LN-229 and U-87 as well as normal BJ cell lines. The cells were plated in 96-well culture plates (2 × 10^4 well) and after 24 h incubation the cells were treated with the tested compounds in the concentration range 1–50 μM. The cells were cultured for the next 48 h. The cytotoxicity of the compounds was evaluated using the MTT colorimetric method as previously described.[28,29] IC50 values were determined using the AAT Bioquest IC50 calculator as the concentration of compounds capable of reducing cell viability by 50%. The experiment was performed in triplicate for each concentration. To examine the cytotoxic effect of compounds on cell morphology, cells were examined under an inverted phase contrast microscope Nikon Eclipse Ti with NIS Element software (Tokyo, Japan).
(Tetrazolium assays rely on reduction of a dye to a coloured formazan, in cell work by metabolically active cells.)

Assay [12] relates to normal skin fibroblast BJ cells. As to the kind of experiment: MTT cell viability assay. As to conditions: BJ normal fibroblasts, 48 hours of incubation. In kind it is cell-based, human. The protocol: as §5, §6
The subject of assay [13] is glioblastoma LN-229 cells. As to the kind of experiment: MTT cell viability assay. Type of assay: cell-based, human. As to conditions: 48 hours of incubation. As to the method: as §5, §6
Assay [14] concerns S. epidermidis ATCC 12228. As to the kind of experiment: Diffusion-well method, inhibition zones. The conditions noted are these: 500 µg/mL, wells 10 mm. Type of assay: cell-based, Staphylococcus epidermidis. The protocol:
as §1, §4

In assay [15] the test system is Enterococcus faecalis ATCC 29212. On the set-up: method as in earlier work. As to conditions: pure ligands, E. faecalis ATCC 29212; previous study ref 29; cited from earlier work.
Assay [16] concerns Salmonella typhimurium ATCC 14028. Also on record: method as in earlier work. As to conditions: pure ligands, S. typhimurium ATCC 14028; previous study ref 29; cited from earlier work.
The test system of assay [17] is Staphylococcus epidermidis ATCC 12228. On the set-up: method as in earlier work. As to conditions: pure ligands, S. epidermidis ATCC 12228; previous study ref 29; cited from earlier work.
Assay [18] relates to Staphylococcus aureus ATCC 25923. Also on record: method as in earlier work. As to conditions: pure ligands, S. aureus ATCC 25923; previous study ref 29; cited from earlier work.

Read-outs that look alike come from different tables or passages of the source.

Consider `NC(=NN=Cc1ccc([N+](=O)[O-])cc1)c1cccc(N2CCCC2)n1.NC(=NN=Cc1ccc([N+](=O)[O-])cc1)c1cccc(N2CCCC2)n1.O=[N+]([O-])[O-].[Ag+]` [Complex 4, AgL4NO3], for which the MIC in assay [1] is 50 µg/mL; in assay [2] it was 100 µg/mL; in assay [3], 100 µg/mL; in [4], 50 µg/mL; in assay [5] it was at most 10 µg/mL; in assay [5] (listed as 4), below 10 µg/mL. For the same compound, the MIC in [6] was 50 µg/mL; in assay [7], at most 10 µg/mL; in assay [7] (listed as 4) it was 10 µg/mL; in assay [8], at most 10 µg/mL; in [8] (listed as 4), below 10 µg/mL; in [9], 50 µg/mL. The Inhibition zone is given as 15 mm with E. faecalis ATCC 29212; 19 mm in assay [10]; 21 mm with S. aureus ATCC 25923; 16 mm with S. aureus ATCC 6538; 18 mm with B. subtilis ATCC 6633; 17 mm in the assay with B. cereus ŁOCK 0807. The Inhibition zone in the assay with E. coli ATCC 10530 was 20 mm; in assay [11], 17 mm; in assay [14], 16 mm. The IC50 was 1.22 ± 0.34 µM in the assay on glioblastoma U87 cells, above 50 µM in assay [12] and above 50 µM in assay [13].
For `NC(=NN=Cc1ccccc1)c1cncc(N2CCOCC2)n1.O.O=[N+]([O-])[O-].[Ag+]` [Complex 5, AgL5NO3 × H2O], the MIC in assay [1] is 50 µg/mL; in [2], 10 µg/mL; in [3], 50 µg/mL; in assay [4], 50 µg/mL; in assay [5], above 500 µg/mL; in assay [6], 50 µg/mL. Moreover, the MIC was 10 µg/mL in assay [7], 50 µg/mL in assay [8] and below 10 µg/mL in [9]. Moreover, the Inhibition zone in the assay with E. faecalis ATCC 29212 is reported as 17 mm; in [10] it was 19 mm; in the assay on S. aureus ATCC 25923, 19 mm; in the assay on S. aureus ATCC 6538, 17 mm; in the assay with B. subtilis ATCC 6633, 18 mm; in the assay on B. cereus ŁOCK 0807 it was 19 mm. Moreover, the Inhibition zone was determined as 17 mm in [11] and 18 mm in assay [14]. Also, the IC50 in the assay with glioblastoma U87 cells is 49.7 ± 3.11 µM; in [12] it was above 50 µM; in assay [13] it was above 50 µM.
With `N/C(=N\N=C\c1ccc([N+](=O)[O-])cc1)c1cccc(N2CCCC2)n1` [Complex L4, (4-nitrobenzylidene)-6-(pyrrolidin-1-yl)picolinohydrazonamide], the MIC in assay [15], in [16], in assay [17] and in assay [18] was above 500 µg/mL in each case. The IC50 in the assay on glioblastoma U87 cells (Homo sapiens, U-87 MG) was above 50 µM; in [12] (Homo sapiens), above 50 µM; in assay [13] (Homo sapiens) it was 48.1 ± 6.09 µM.
Turning to `N/C(=N\N=C\c1ccccc1)c1cncc(N2CCOCC2)n1` [Complex L5, (benzylidene)-6-morpholinopyrazine-2-carbohydrazonamide], the MIC in [15], in [16], in [17] and in [18] was above 500 µg/mL in each case. The IC50 was above 50 µM with glioblastoma U87 cells (Homo sapiens, U-87 MG); above 50 µM in assay [12] (Homo sapiens); above 50 µM in [13] (Homo sapiens).
For `N/C(=N\N=C\c1ccccc1)c1cncc(N2CCCC2)n1` [Complex L6, (benzylidene)-6-(pyrrolidin-1-yl)pyrazine-2-carbohydra-zonamide], the MIC in [15], in [16], in assay [17] and in [18] was 500 µg/mL throughout. Also, the IC50 in the assay on glioblastoma U87 cells (Homo sapiens, U-87 MG) is above 50 µM; in assay [12] (Homo sapiens) it was 42.4 ± 6.17 µM; in [13] (Homo sapiens), above 50 µM.

The term MIC denotes the smallest concentration in the dilution series that meets the test's criterion for growth inhibition. By IC50 is commonly meant the point on the concentration scale where inhibition reaches its midpoint. Low readings indicate inhibition by little substance, high ones a need for much substance.

(Values after paper PMC12150283, “Synthesis of new Ag(I) and Cd(II) hydrozanomide-based complexes with antibacterial and anticancer properties” (RSC Advances, 2025).)
